Data reported in patent publication EP1206474B1, “SULFONYLPHENYLPYRAZOLE COMPOUNDS USEFUL AS COX-2 INHIBITORS” (ABBOTT LABORATORIES, priority 1999, dated 2001).
Each block holds one molecule with its values, some of them ahead of it.

Legend:
[1] = target: T1, recombinant human Cox-2 (r-hu Cox-2) (Homo sapiens, UniProt P35354); assay: Recombinant human PGHS-2 (r-hu Cox-2) enzyme assay, PGE2 by EIA; format: biochemical; conditions: for inhibition at 10 µM: at 10000 nM; for inhibition at 10 µM / inhibition at 0.1 µM: read-out: r-hu COX2 percent inhibition; for IC50: parenthetical values indicate IC50, read-out: r-hu COX2 IC50 (parenthetical values); for inhibition at 0.1 µM: at 100 nM
T1 construct: made in house; host or cells: baculovirus/Sf9 insect cells (microsomes)
T1 sequence (P35354 18-604): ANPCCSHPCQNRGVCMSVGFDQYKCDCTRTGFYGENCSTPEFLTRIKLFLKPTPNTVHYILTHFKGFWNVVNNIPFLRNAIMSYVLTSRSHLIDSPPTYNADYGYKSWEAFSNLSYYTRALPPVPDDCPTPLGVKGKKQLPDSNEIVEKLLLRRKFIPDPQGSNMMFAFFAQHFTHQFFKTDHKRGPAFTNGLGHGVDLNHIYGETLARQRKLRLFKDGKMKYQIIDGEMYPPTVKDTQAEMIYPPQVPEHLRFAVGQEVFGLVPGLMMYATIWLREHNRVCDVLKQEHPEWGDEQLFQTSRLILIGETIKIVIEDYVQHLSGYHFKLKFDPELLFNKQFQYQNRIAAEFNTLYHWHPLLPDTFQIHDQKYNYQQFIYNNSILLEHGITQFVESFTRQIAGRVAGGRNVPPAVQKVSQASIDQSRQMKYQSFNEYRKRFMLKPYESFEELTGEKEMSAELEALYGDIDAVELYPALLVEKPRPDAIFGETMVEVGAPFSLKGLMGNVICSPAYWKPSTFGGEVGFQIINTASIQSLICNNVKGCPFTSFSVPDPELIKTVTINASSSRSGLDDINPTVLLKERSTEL
Procedure: (§1) To compare the mean responses of the treatment groups, analysis of variance was applied. Percent inhibition values were determined by comparing the individual treatment mean values to the mean of the control group. Linear regression was used to estimate IC50's/ED50's in appropriate assays.
(§2) EIA reagents for prostaglandin determination were purchased from Perseptive Diagnostics, (Cambridge, MA). Prostaglandin E2 (PGE2) levels in lavage fluids were determined after the samples were dried under nitrogen and reconstituted with assay buffer. PGE2 levels in enzyme assays or cell culture media were measured against standards prepared in the same milieu. The immunoassays were conducted as recommended by the manufacturer. The EIA was conducted in 96 well microtiter plates (Nunc Roskilde, Denmark) and optical density was measured using a microplate reader (Vmax, Molecular Devices Corp., Menlo Park, CA).
(§3) Inhibition of prostaglandin biosynthesis in vitro was evaluated using recombinant human Cox-1 (r-hu Cox-1) and Cox-2 (r-hu Cox-2) enzyme assays. […] The reaction was allowed to run for 2.5 minutes at room temperature prior to quenching with HCl and neutralization with NaOH. PGE2 production in the presence and absence of the drug was determined by EIA analysis. The EIA was conducted in 96 well microtiter plates (Nunc Roskilde, Denmark) and optical density was measured using a microplate reader (Vmax, Molecular Devices Corp., Menlo Park, CA). EIA reagents for prostaglandin determination were purchased from Perseptive Diagnostics (Cambridge, MA). PGE2 levels were measured against standards prepared in the same milieu. The immunoassays were conducted as recommended by the manufacturer. The compounds are designated by the Example Number. […] Values for Cox-2 inhibition that are parenthetical indicate IC50 values.

[2] = target: T2, recombinant human Cox-1 (r-hu Cox-1) (Homo sapiens, UniProt P23219); assay: Recombinant human PGHS-1 (r-hu Cox-1) enzyme assay, PGE2 by EIA; format: biochemical; conditions: read-out: r-hu COX1 percent inhibition
T2 construct: made in house; host or cells: baculovirus/Sf9 insect cells (microsomes)
T2 sequence (P23219 24-599): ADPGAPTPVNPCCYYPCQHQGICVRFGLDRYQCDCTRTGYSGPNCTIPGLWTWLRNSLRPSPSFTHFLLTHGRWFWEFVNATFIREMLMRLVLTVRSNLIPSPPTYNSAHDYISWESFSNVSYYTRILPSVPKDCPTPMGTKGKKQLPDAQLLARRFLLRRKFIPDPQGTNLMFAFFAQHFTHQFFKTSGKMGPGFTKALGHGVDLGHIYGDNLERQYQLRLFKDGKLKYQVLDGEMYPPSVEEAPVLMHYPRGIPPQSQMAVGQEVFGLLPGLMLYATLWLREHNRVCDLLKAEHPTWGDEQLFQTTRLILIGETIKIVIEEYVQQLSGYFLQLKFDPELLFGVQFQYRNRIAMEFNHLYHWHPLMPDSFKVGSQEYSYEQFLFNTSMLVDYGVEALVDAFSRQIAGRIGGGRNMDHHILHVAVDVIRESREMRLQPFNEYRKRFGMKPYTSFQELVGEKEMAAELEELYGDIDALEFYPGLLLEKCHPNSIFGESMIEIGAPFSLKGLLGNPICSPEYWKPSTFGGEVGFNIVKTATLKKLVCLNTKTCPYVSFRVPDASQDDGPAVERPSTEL
Procedure: as §1, §2, §3

[3] = test system: male adrenalectomized Sprague-Dawley rats; assay: Rat carrageenan pleural inflammation (CIP) model; format: in vivo; conditions: 10 milligrams per kilogram body weight, oral, 30 minutes prior to carrageenan; lavage four hours later; inhibition of prostaglandin biosynthesis
Procedure: For oral administration, test compounds were suspended on the day of use in 100% polyethyleneglycol (PEG 400) with a motorized homogenizer equipped with a Teflon-coated pestle (TRI-R Instrument, Jamaica, NY).
as §1, §2
Pleural inflammation was induced in male adrenalectomized Sprague-Dawley rats following the method of Vinegar et al., Fed. Proc. 1976, 35, 2447-2456. […] Eicosanoids were determined by EIA as described above. […]

[4] = test system: Human amnionic WISH cells; assay: IL-1β induced PGE2 production in WISH cells; format: cell-based; conditions: IL-1β induced PGE2, 18 hour incubation; for inhibition at 1 µM: at 1000 nM; for IC50: parenthetical value, read-out: WISH (parenthetical value, IC50 by analogy with Table 1)
Procedure: as §2
Human amnionic WISH cells were grown to 80% confluence in 48 well plates. Following removal of the growth medium and two washings with Gey's Balanced Salt Solution, 5 ng IL-1β/ml (UBI, Lake Placid, NY) was added to the cells with or without test compound in DMSO (0.01% v/v) in Neuman-Tytell Serumless Medium (GIBCO, Grand Island, NY). Following an 18 hour incubation to allow for the maximal induction of PGHS-2, the conditioned medium was removed and assayed for PGE2 content by EIA analysis as described above.
WISH cell values indicate percent inhibition at the particular nanomolar dose level.

[5] = Homo sapiens, read-out: WISH percent inhibition

Compound: CS(=O)(=O)c1ccc(-c2nn3c(-c4ccccc4)coc3c2-c2ccc(F)cc2)cc1 [Example 37, 7-(4-Fluorophenyl)-6-(4-(methylsulphonyl)phenyl)-3-phenylpyrazolo[5,1-b][1,3]oxazole]
CIP Inh @10mpk [3]: 0%

Compound: CS(=O)(=O)c1ccc(-c2nn3c(c2-c2ccc(F)cc2)OCCC3)cc1 [Example 1, 3-(4-Fluorophenyl)-2-(4-(methylsulphonyl)phenyl)-6,7-dihydro-5H-pyrazolo[5,1-b][1,3]oxazine]
IC50 [1]: 720 nM | inhibition at 100 µM [2]: 4% | inhibition at 1 µM [4, 5]: 19%

Compound: Cc1oc2c(-c3ccc(F)cc3)c(-c3ccc(S(C)(=O)=O)cc3)nn2c1-c1ccccc1 [Example 41, 7-(4-Fluorophenyl)-2-methyl-6-(4-(methylsulphonyl)phenyl)-3-phenylpyrazolo[5,1-b][1,3]oxazole]
WISH percent inhibition ([4]; at 0.1 (nM)): 33% | WISH percent inhibition ([4]; at 1 (nM)): 52%

Compound: CC=CC(=O)c1oc2c(-c3ccc(F)cc3)c(-c3ccc(S(C)(=O)=O)cc3)nn2c1C [Example 58, 1-[7-(4-Fluorophenyl)-3-methyl-6-(4-(methylsulphonyl)phenyl)pyrazolo[5,1-b][1,3]oxazol-2-yl]but-2-en-1-one]
WISH percent inhibition ([4]; at 0.1 (nM)): 84 @ 0.1%

Compound: CS(=O)(=O)c1ccc(-c2nn3c(C4C5CC6CC(C5)CC4C6)coc3c2-c2ccc(F)cc2)cc1 (stereo not shown) [Example 39, 3-(2-Adamantyl)-7-(4-fluorophenyl)-6-(4-(methylsulphonyl)phenyl)pyrazolo[5,1-b][1,3]oxazole]
WISH percent inhibition ([4]; at 0.1 (nM)): 38% | WISH percent inhibition ([4]; at 1 (nM)): 95%

Compound: CS(=O)(=O)c1ccc(-c2nn3c(c2-c2ccc(F)cc2)OCc2ccccc2-3)cc1 [Example 6, 3-(4-Fluorophenyl)-2-(4-(methylsulphonyl)phenyl)-5H-pyrazolo[1,5-b][1,3]-benzoxazine]
inhibition at 0.1 µM [1]: 82% | inhibition at 100 µM [2]: 25%

Compound: CS(=O)(=O)c1ccc(-c2nn3c(c2-c2ccc(F)cc2)OCC3)cc1 [Example 5, 7-(4-Fluorophenyl)-6-(4-(methylsulphonyl)phenyl)-2,3-dihydropyrazolo[5,1-b][1,3]oxazole]
inhibition at 1 µM [4, 5]: 33%

Continued, in another order:

inhibition at 10 µM [1]: 62% | inhibition at 100 µM [2]: 12%
Compound: CS(=O)(=O)c1ccc(-c2nn3c(c2-c2ccc(F)cc2)OCC=CC3)cc1 [Example 4, 3-(4-Fluorophenyl)-2-(4-methylsulponylphenyl) -5,8-dihydropyrazolo[5,1-b][1,3]oxazepine]

inhibition at 0.1 µM [1]: 94% | inhibition at 100 µM [2]: 23%
Compound: CCc1coc2c(-c3ccc(F)cc3)c(-c3ccc(S(C)(=O)=O)cc3)nn12 [Example 61, 3-Ethyl-7-(4-fluorophenyl)-6-(4-(methylsulphonyl)phenyl)pyrazolo[5,1-b][1,3]oxazole]

inhibition at 0.1 µM [1]: 51% | inhibition at 100 µM [2]: 96%
Compound: Cc1c(C#N)oc2c(-c3ccc(F)cc3)c(-c3ccc(S(N)(=O)=O)cc3)nn12 [Example 59, 6-(4-(Aminosulphonyl)phenyl)-2-cyano-7-(4-Fluorophenyl)-3-methyl-pyrazolo[5,1-b][1,3]oxazole]

inhibition at 10 µM [1]: 57% | inhibition at 100 µM [2]: 9%
Compound: CS(=O)(=O)c1ccc(-c2nn3c(c2-c2ccc(F)cc2)OCCCC3)cc1 [Example 2, 3-(4-Fluorophenyl)-2-(4-(methylsulphonyl)phenyl)-5,6,7,8-tetrahydropyrazolo[5,1-b][1,3]oxazepine]

inhibition at 0.1 µM [1]: 86% | inhibition at 100 µM [2]: 23%
Compound: CS(=O)(=O)c1ccc(-c2nn3c4c(oc3c2-c2ccc(F)cc2)CCCC4)cc1 [Example 42, 3-(4-Fluorophenyl)-2-(4-(methylsulphonyl)phenyl)-5,6,7,8-tetrahydropyrazolo[5,1-b][1,3]benzoxazole]
WISH percent inhibition ([4]; at 0.01 (nM)): 37% | WISH percent inhibition ([4]; at 0.1 (nM)): 81%

IC50 ([4]; Homo sapiens): 0.2 nM
Compound: Cc1c(C#N)oc2c(-c3ccc(F)cc3)c(-c3ccc(S(C)(=O)=O)cc3)nn12 [Example 54, 2-Cyano-7-(4-fluorophenyl)-3-methyl-6-(4-(methylsulphonyl)phenyl)pyrazolo[5,1-b][1,3]oxazole]

IC50 [1]: 90 nM | inhibition at 100 µM [2]: 20%
Compound: CS(=O)(=O)c1ccc(-c2nn3c(c2-c2ccc(F)cc2)OCc2ccccc2C3)cc1 [Example 3]
CIP Inh @10mpk [3]: 3% | inhibition at 0.01 µM ([4]; Homo sapiens, at 10 nM, read-out: WISH percent inhibition): 43%

IC50 [1]: 2 nM | inhibition at 100 µM [2]: 91% | IC50 ([4]; Homo sapiens): 0.21 nM
Compound: CCc1coc2c(-c3ccc(F)cc3)c(-c3ccc(S(N)(=O)=O)cc3)nn12 [Example 62, 6-(4-(aminosulphonyl)phenyl)-3-Ethyl-7-(4-fluorophenyl)pyrazolo[5,1-b][1,3]oxazole]

inhibition at 0.1 µM [1]: 88% | inhibition at 10 µM ([2]; at 10 µM): 99%
Compound: CC(C)(C)c1coc2c(-c3ccc(F)cc3)c(-c3ccc(S(N)(=O)=O)cc3)nn12 [Example 55]
